Source: the NIST ThermoML archive (doi:10.1016/j.jct.2006.11.014)
± gives the expanded uncertainty stated by the source. One block for each molecule: values may come before it.

Legend:
[1] = cn = amount concentration of the nth substance listed, in mol/dm3; conditions: 298.15 K, 101 kPa, Liquid
[2] = an = ratio of the nth substance listed; conditions: 298.15 K, 101 kPa, Liquid

Compound: [Cl-].[K+] [potassium chloride] + O
mass density ([1]; c1 = 1): 1042.84 ± 0.32 kg/m3
mass density ([1]; c1 = 2): 1082.33 ± 0.42 kg/m3
mass density ([1]; c1 = 4): 1168.97 ± 0.63 kg/m3

Compound: O=C1CNC(=O)CN1 [2,5-diketopiperazine] + O
mass density ([2]; a1 = 0.0003): 997.17 ± 0.29 kg/m3
mass density ([2]; a1 = 0.0007): 997.34 ± 0.29 kg/m3
mass density ([2]; a1 = 0.0009): 997.37 ± 0.29 kg/m3
mass density ([2]; a1 = 0.0026): 997.92 ± 0.29 kg/m3
mass density ([2]; a1 = 0.0053): 998.93 ± 0.28 kg/m3
mass density ([2]; a1 = 0.0101): 1000.34 ± 0.28 kg/m3
mass density ([2]; a1 = 0.0134): 1001.42 ± 0.29 kg/m3
mass density ([2]; a1 = 0.0157): 1002.16 ± 0.29 kg/m3
mass density ([2]; a1 = 0.0168): 1002.5 ± 0.29 kg/m3

Compound: [Br-].[K+] [potassium bromide] + O
mass density ([1]; c1 = 1): 1080.52 ± 0.42 kg/m3
mass density ([1]; c1 = 2): 1162.26 ± 0.63 kg/m3
mass density ([1]; c1 = 4): 1323.4 ± 1.1 kg/m3

Results, then the molecule that gave them:

mass density ([1]; c1 = 1): 1043.58 ± 0.32 kg/m3
mass density ([1]; c1 = 2): 1087.93 ± 0.43 kg/m3
mass density ([1]; c1 = 4): 1170.95 ± 0.64 kg/m3
Compound: CC(=O)[O-].[K+] [potassium ethanoate] + O

mass density ([2]; a1 = 0.1001): 1035.94 ± 0.32 kg/m3
mass density ([2]; a1 = 0.1553): 1053.34 ± 0.36 kg/m3
mass density ([2]; a1 = 0.193): 1066.16 ± 0.4 kg/m3
mass density ([2]; a1 = 0.2113): 1072.41 ± 0.41 kg/m3
mass density ([2]; a1 = 0.2201): 1074.86 ± 0.42 kg/m3
mass density ([2]; a1 = 0.2258): 1076.92 ± 0.42 kg/m3
Compound: O=C(O)CNCC(=O)O [N-(carboxymethyl)glycine] + O

mass density ([2]; a1 = 0.1091): 1039.02 ± 0.39 kg/m3
mass density ([2]; a1 = 0.1535): 1053.89 ± 0.42 kg/m3
mass density ([2]; a1 = 0.1933): 1065.41 ± 0.46 kg/m3
mass density ([2]; a1 = 0.2231): 1075.18 ± 0.48 kg/m3
mass density ([2]; a1 = 0.239): 1079.4 ± 0.49 kg/m3
mass density ([2]; a1 = 0.244): 1080.36 ± 0.5 kg/m3
mass density ([2]; a1 = 0.2509): 1082.99 ± 0.5 kg/m3
Compound: NCC(=O)O [2-aminoacetic acid] + O

mass density ([2]; a1 = 0.0013): 997.73 ± 0.29 kg/m3
mass density ([2]; a1 = 0.0023): 998.04 ± 0.29 kg/m3
mass density ([2]; a1 = 0.0031): 998.3 ± 0.29 kg/m3
mass density ([2]; a1 = 0.0033): 998.38 ± 0.29 kg/m3
mass density ([2]; a1 = 0.0036): 998.49 ± 0.29 kg/m3
mass density ([2]; a1 = 0.0038): 998.55 ± 0.28 kg/m3
mass density ([2]; a1 = 0.0039): 998.59 ± 0.28 kg/m3
Compound: NCC(=O)NCC(=O)NCC(=O)NCC(=O)O [glycylglycylglycylglycine] + O

mass density ([2]; a1 = 0.0099): 1001 ± 0.28 kg/m3
mass density ([2]; a1 = 0.0192): 1004.77 ± 0.29 kg/m3
mass density ([2]; a1 = 0.0355): 1011.02 ± 0.31 kg/m3
mass density ([2]; a1 = 0.0452): 1014.88 ± 0.32 kg/m3
mass density ([2]; a1 = 0.0544): 1018.36 ± 0.33 kg/m3
mass density ([2]; a1 = 0.0624): 1021.44 ± 0.34 kg/m3
mass density ([2]; a1 = 0.0641): 1022.05 ± 0.34 kg/m3
Compound: NCC(=O)NCC(=O)NCC(=O)O [glycylglycylglycine] + O
